Columns and labels:
[1] = Fraction unbound in mouse brain
[2] = Fraction unbound in 100% human serum; type: ADME, cell-free

## CCCC(C)(COC(N)=O)COC(N)=O [MEPROBAMATE]
[1]
  fraction unbound: 0.76

## O=C(O)[C@H](Oc1cccc(C(F)(F)F)c1)c1ccc(Cl)cc1 [MBX-102 ACID FORM]
[2]
  fraction unbound: 0.009
